In ChEMBL document CHEMBL1133888, “Development and in vitro efficacy of novel MMP2 and MMP9 specific doxorubicin albumin conjugates” (Bioorg Med Chem Lett, 2001) one finds IC50 data, which are given here for 1 molecule.

This assay can be described thus: Inhibitory effect against murine renal cell carcinoma cell line (RENCA cells) using a BrdU-incorporation assay. The class given is functional, cell-based. The conditions noted are these: Mus musculus.

A value given as a limit tells only on which side of the number the result lay.

Broadly, the IC50 is the concentration that gives 50% inhibition. High values mean weaker potency in that assay, low ones greater potency in that assay. For `COc1cccc2c1C(=O)c1c(O)c3c(c(O)c1C2=O)C[C@@](O)(C(=O)CO)C[C@@H]3O[C@H]1C[C@H](N)[C@H](O)[C@H](C)O1` [DOXORUBICIN], the IC50 was < 10 nM.
